target: T1, Human TRPC6 (Homo sapiens, UniProt Q9Y210); assay: Evaluation of TRPC6 channel inhibitory activity (1), FLIPR Calcium 5 Assay Kit, OAG stimulation (Compound Nos. 1-1293); type: cell-based; conditions: Human TRPC6 stably-expressing cells, OAG 30 μM, FLIPR Calcium 5 Assay Kit; read-out: Inhibitory activity (pIC50 class) (converted)
T1 construct: expressed in transfected cells
T1 sequence (Q9Y210 1-931): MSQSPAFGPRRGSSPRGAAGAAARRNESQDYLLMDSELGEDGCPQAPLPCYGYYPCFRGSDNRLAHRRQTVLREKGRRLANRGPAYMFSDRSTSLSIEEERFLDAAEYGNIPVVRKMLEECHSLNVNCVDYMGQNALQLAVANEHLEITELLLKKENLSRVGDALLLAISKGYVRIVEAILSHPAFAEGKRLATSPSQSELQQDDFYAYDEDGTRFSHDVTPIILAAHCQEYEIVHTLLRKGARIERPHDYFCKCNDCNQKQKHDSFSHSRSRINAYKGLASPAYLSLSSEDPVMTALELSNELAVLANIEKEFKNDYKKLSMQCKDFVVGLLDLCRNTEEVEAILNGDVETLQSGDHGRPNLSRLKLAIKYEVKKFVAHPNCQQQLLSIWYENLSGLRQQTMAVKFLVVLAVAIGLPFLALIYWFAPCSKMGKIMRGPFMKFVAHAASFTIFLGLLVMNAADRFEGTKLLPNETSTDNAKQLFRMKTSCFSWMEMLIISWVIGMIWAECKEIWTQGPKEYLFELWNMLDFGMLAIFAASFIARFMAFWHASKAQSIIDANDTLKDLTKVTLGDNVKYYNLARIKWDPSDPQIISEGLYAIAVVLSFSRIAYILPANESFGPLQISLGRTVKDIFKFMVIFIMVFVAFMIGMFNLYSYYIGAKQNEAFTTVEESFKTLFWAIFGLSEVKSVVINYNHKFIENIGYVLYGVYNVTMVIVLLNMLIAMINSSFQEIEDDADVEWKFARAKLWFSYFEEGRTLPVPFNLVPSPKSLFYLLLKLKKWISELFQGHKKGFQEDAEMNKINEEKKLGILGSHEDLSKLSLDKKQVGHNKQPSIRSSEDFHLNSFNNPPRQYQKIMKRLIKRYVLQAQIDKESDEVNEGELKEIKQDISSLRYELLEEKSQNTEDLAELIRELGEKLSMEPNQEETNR
Outline: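 Stable human TRPC6 line; fluorescent Ca2+ dye loading, then 20 min compound exposure before 30 μM OAG trigger. Peak-minus-baseline signal converted to % inhibition against untreated and unstimulated wells; potency given as pIC50 band.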

Row | IC50 | SMILES
1 | < 10 nM | Cc1nc(Oc2cc(C#N)ccc2-n2cc([C@@H](O)CN)cn2)cc(OC2CCCCC2)n1 [Compound 266, 4-[4-[(1R)-2-amino-1-hydroxyethyl]pyrazol-1-yl]-3-(6-cyclohexyloxy-2-methylpyrimidin-4-yl)oxybenzonitrile]
2 | 10 to 1000 nM | Cc1nc(OCC2CC2(F)F)cc(Oc2cc(C#N)ccc2-n2cc([C@@H](O)CN)cn2)n1 (stereo partly drawn) [Compound 271, 4-[4-[(1R)-2-amino-1-hydroxyethyl]pyrazol-1-yl]-3-[6-[(2,2-difluorocyclopropyl)methoxy]-2-methylpyrimidin-4-yl]oxybenzonitrile]
3 | < 10 nM | Cn1nc(C2CCOCC2)cc1Oc1cc(C#N)ccc1-c1ncc(CCN)cn1 [Compound 273, 4-[5-(2-aminoethyl)pyrimidin-2-yl]-3-[2-methyl-5-(oxan-4-yl)pyrazol-3-yl]oxybenzonitrile]
4 | < 10 nM | Cn1nc(-c2ccccc2)cc1Oc1cc(C#N)ccc1-c1ncc(CCN)cn1 [Compound 274, 4-[5-(2-aminoethyl)pyrimidin-2-yl]-3-(2-methyl-5-phenylpyrazol-3-yl)oxybenzonitrile]
5 | < 10 nM | Cn1nc(C2CCC2)cc1Oc1cc(C#N)ccc1-c1ccc(C(O)CN)cn1 (centres unmarked) [Compound 276, 4-[5-(2-amino-1-hydroxyethyl)pyridin-2-yl]-3-(5-cyclobutyl-2-methylpyrazol-3-yl)oxybenzonitrile]
6 | < 10 nM | N#Cc1ccc(-c2ncc(CCN)cn2)c(Oc2cnnc(-c3ccccc3)c2)c1 [Compound 277, 4-[5-(2-aminoethyl)pyrimidin-2-yl]-3-(6-phenylpyridazin-4-yl)oxybenzonitrile]

The next lines start with the compound.

Row | SMILES | IC50
7 | Cc1nc(Oc2cc(C#N)ccc2-n2cc([C@@H](O)CN)cn2)cc(OC2CCCC2)n1 [Compound 265, 4-[4-[(1R)-2-amino-1-hydroxyethyl]pyrazol-1-yl]-3-(6-cyclopentyloxy-2-methylpyrimidin-4-yl)oxybenzonitrile] | 10 to 1000 nM
8 | Cc1nc(OCC(C)C)cc(Oc2cc(C#N)ccc2-n2cc([C@@H](O)CN)cn2)n1 [Compound 267, 4-[4-[(1R)-2-amino-1-hydroxyethyl]pyrazol-1-yl]-3-[2-methyl-6-(2-methylpropoxy)pyrimidin-4-yl]oxybenzonitrile] | < 10 nM
9 | Cc1nc(OCC(F)(F)F)cc(Oc2cc(C#N)ccc2-n2cc([C@@H](O)CN)cn2)n1 [Compound 268, 4-[4-[(1R)-2-amino-1-hydroxyethyl]pyrazol-1-yl]-3-[2-methyl-6-(2,2,2-trifluoroethoxy)pyrimidin-4-yl]oxybenzonitrile] | 10 to 1000 nM
10 | Cc1nc(Oc2cc(C#N)ccc2-n2cc([C@@H](O)CN)cn2)cc(OC2CCC2)n1 [Compound 269, 4-[4-[(1R)-2-amino-1-hydroxyethyl]pyrazol-1-yl]-3-(6-cyclobutyloxy-2-methylpyrimidin-4-yl)oxybenzonitrile] | 10 to 1000 nM
11 | Cc1nc(OCC2CCC2)cc(Oc2cc(C#N)ccc2-n2cc([C@@H](O)CN)cn2)n1 [Compound 270, 4-[4-[(1R)-2-amino-1-hydroxyethyl]pyrazol-1-yl]-3-[6-(cyclobutylmethoxy)-2-methylpyrimidin-4-yl]oxybenzonitrile] | 10 to 1000 nM
12 | Cn1nc(C2CCC2)cc1Oc1cc(C#N)ccc1-c1ncc(CCN)cn1 [Compound 272, 4-[5-(2-aminoethyl)pyrimidin-2-yl]-3-(5-cyclobutyl-2-methylpyrazol-3-yl)oxybenzonitrile] | < 10 nM
13 | Cc1nc(Oc2cc(C#N)ccc2-c2ncc(CCN)cn2)cc(-c2ccccc2)n1 [Compound 275, 4-[5-(2-aminoethyl)pyrimidin-2-yl]-3-(2-methyl-6-phenylpyrimidin-4-yl)oxybenzonitrile] | < 10 nM
14 | Cn1nc(C2CCC2)cc1Oc1cc(C#N)ccc1-c1ncc(C(O)CN)cn1 (centres unmarked) [Compound 278, 4-[5-(2-amino-1-hydroxyethyl)pyrimidin-2-yl]-3-(5-cyclobutyl-2-methylpyrazol-3-yl)oxybenzonitrile] | < 10 nM

Source: patent US20230167073A1 (Teijin Pharma Limited, priority 2020, published 2023)
